Reference: US12427134B2, “Methods of reducing the risk of cardiovascular events in a subject with atrial fibrillation and/or atrial flutter” (priority 2019, dated 2025)

Test system: hypertriglyceridemic patients with cardiovascular disease or at high risk for cardiovascular disease
Experiment: REDUCE-IT: subgroup analyses of the primary and key secondary endpoints
Type: in vivo, human
Conditions: for Primary endpoint, patients with event (%) / Time to primary endpoint, HR (95% CI) AMR101/Placebo / Primary endpoint, patients with event n/N: ITT
Experimental: Exploratory Subgroup Analyses: Analyses of the effects that patients off study drug and withdrawn from study have on the primary endpoint were performed. Subgroup analyses of the primary and key secondary endpoints were performed as described for the primary endpoint. For each subgroup, Kaplan-Meier estimates, the log-rank test stratified by stratification factors used at randomization (except where the subgroup was a stratification factor), and HRs and CIs from the Cox proportional hazards model as specified for the primary efficacy endpoint, were summarized by treatment group. Demographic, disease, treatment, and baseline lipid and lipoproteins parameters were explored.
Demographic parameters included: Gender; age at baseline (<65 years and ≥65 years); race (white and nonwhite, or any other subset with at least 10% of the total number of patients); geographical region (Westernized, Eastern European, and Asia Pacific countries); and baseline ezetimibe use (yes/no).
Disease parameters included: CV risk category; the presence/absence of diabetes at baseline; and renal dysfunction at baseline (estimated glomerular filtration rate [eGFR]<60 mL/min/1.73 m^2) using the Chronic Kidney Disease Epidemiology Collaboration (CKD-EPI) equation as follows: eGFR=141×min(Scr/κ,1)^α×max(Scr/κ,1)^[…]^Age×1.018 [if female]×1.159 [if black]
Treatment Parameters included: Statin intensity at baseline (statin type and regimen); and statin intensity categories as defined in ACC/AHA Cholesterol Guidelines (Stone 2013) and patient's 10-year CV Risk Score (Goff 2013).
Baseline Lipid and Lipoprotein Parameter included: LDL-C (by tertile); HDL-C (by tertile, and tertile by gender); TG (by tertile, and tertile by gender); RLP-C (by tertile); TG ≥150 mg/dL and TG <150 mg/dL; TG ≥200 mg/dL and TG <200 mg/dL; TG ≥median, TG <median; combined highest tertile for TG and lowest tertile for HDL-C; gender-specific highest tertile for TG and lowest tertile for HDL-C; TG ≥200 mg/dL with HDL-C ≤35 mg/dL; hsCRP (≤3 mg/L and >3 mg/L) and by gender; hsCRP (≤2 mg/L and >2 mg/L) and by gender; Apo B (by tertile); non-HDL-C (by tertile); baseline hemoglobin A1c (Hb1c) value (<6.5%, ≥6.5%); baseline PAD; and baseline TG levels ≥150 mg/dL with high-density lipoprotein cholesterol (HDL-C) levels ≤40 mg/dL for males and ≤50 mg/dL for females.
A Cox proportional hazard (PH) model as mentioned above but additionally with baseline TG as a covariate were fitted to the data at each interim. Diagnostic plots for the PH assumption were evaluated. The consistency of the treatment effects in subgroups was assessed for the primary and key secondary efficacy endpoints. For each subgroup variable, a Cox PH model with terms for treatment, stratification factors (with the exception of those subgroup variables related to the stratification factors, i.e., CV risk category), subgroup, and treatment-by-subgroup interaction were performed. The main treatment effect was tested with this model. P-values for testing the interaction terms <0.15 were considered significant. Results were presented in a Forest plot.
Subgroup analyses of the primary and key secondary endpoints were performed as described for the primary endpoint. For each subgroup, Kaplan-Meier estimates, the log-rank test stratified by stratification factors used at randomization (except where the subgroup was a stratification factor), and HRs and CIs from the Cox proportional hazards model as specified for the primary efficacy endpoint, were summarized by treatment group. All subgroup analyses were conducted for the ITT, mITT and PP populations.
Of note regarding the following subgroup analyses, per study design, subgroup analyses are underpowered to detect statistically significant results within each individual subgroup, particularly when a subgroup represents less than 50% of the enrolled population, and when a subgroup has low event rates. […]

[1] = Baseline TG <150 mg/dL or HDL-C >40 mg/dL (Males) or >50 mg/dL (Females)
[2] = Baseline TG ≥150 mg/dL and HDL-C ≤40 mg/dL (Males) or ≤50 mg/dL (Females)
[3] = Females, Baseline hsCRP >2 mg/L
[4] = Females, Baseline hsCRP ≤2 mg/L
[5] = Females, HDL-C Highest Tertile (>48 to ≤96.5 mg/dL)
[6] = Females, HDL-C Lowest Tertile (≥21 to ≤41 mg/dL)
[7] = Females, HDL-C Middle Tertile (>41 to ≤48 mg/dL)
[8] = Females, Highest tertile for baseline TG and lowest tertile for baseline HDL-C (No)
[9] = Females, Highest tertile for baseline TG and lowest tertile for baseline HDL-C (Yes)
[10] = Females, TG Highest Tertile (>241.5 to ≤1401 mg/dL)
[11] = Females, TG Lowest Tertile (≥92.5 to ≤186 mg/dL)
[12] = Females, TG Middle Tertile (>186 to ≤241.5 mg/dL)
[13] = Males, HDL-C Highest Tertile (>42 to ≤107.5 mg/dL)
[14] = Males, HDL-C Lowest Tertile (≥17 to ≤35.5 mg/dL)
[15] = Males, HDL-C Middle Tertile (>35.5 to ≤42 mg/dL)
[16] = Males, Highest tertile for baseline TG and lowest tertile for baseline HDL-C (No)
[17] = Males, Highest tertile for baseline TG and lowest tertile for baseline HDL-C (Yes)
[18] = Males, TG Highest Tertile (>253.5 to ≤830 mg/dL)
[19] = Males, TG Lowest Tertile (≥81.25 to ≤191.5 mg/dL)
[20] = Males, TG Middle Tertile (>191.5 to ≤253.5 mg/dL)
[21] = Overall (Males and Females), Baseline hsCRP >2 mg/L
[22] = Overall (Males and Females), Baseline hsCRP ≤2 mg/L
[23] = Overall (Males and Females), HDL-C Highest Tertile (>43.5 to ≤107.5 mg/dL)
[24] = Overall (Males and Females), HDL-C Lowest Tertile (≥17 to ≤36.5 mg/dL)
[25] = Overall (Males and Females), HDL-C Middle Tertile (>36.5 to ≤43.5 mg/dL)
[26] = Overall (Males and Females), Highest tertile for baseline TG and lowest tertile for baseline HDL-C (No)
[27] = Overall (Males and Females), Highest tertile for baseline TG and lowest tertile for baseline HDL-C (Yes)
[28] = Overall (Males and Females), TG Highest Tertile (>250 to ≤1401 mg/dL)

CC/C=C\C/C=C\C/C=C\C/C=C\C/C=C\CCCC(=O)OCC [AMR101, eicosapentaenoic acid ethyl ester]
Key secondary endpoint event, patients (<65 years subgroup): 9.0% | Key secondary endpoint, HR (<65 years subgroup): 0.652 | Primary endpoint event, patients (<65 years subgroup): 14.4% | Primary endpoint, HR (<65 years subgroup): 0.650 | Primary endpoint, patients with event (%) (Baseline HbA1c <6.5%): 16.5% | Time to primary endpoint, HR (95% CI) AMR101/Placebo (Baseline HbA1c <6.5%): 0.793 | Time to primary endpoint, HR (95% CI) AMR101/Placebo (Baseline HbA1c ≥6.5%): 0.701 | Primary endpoint, patients with event (%) [1]: 18.2% | Time to primary endpoint, HR (95% CI) AMR101/Placebo [1]: 0.842 | Primary endpoint, patients with event (%) [2]: 16.5% | Time to primary endpoint, HR (95% CI) AMR101/Placebo [2]: 0.691 | Primary endpoint, patients with event (%) [3]: (15.0) % | Primary endpoint, patients with event n/N [3]: 113/752 | Time to primary endpoint, HR (95% CI) AMR101/Placebo [3]: 0.930 | Primary endpoint, patients with event (%) [4]: (10.0) % | Primary endpoint, patients with event n/N [4]: 41/409 | Time to primary endpoint, HR (95% CI) AMR101/Placebo [4]: 0.621 | Primary endpoint, patients with event (%) [5]: (13.9) % | Primary endpoint, patients with event n/N [5]: 50/359 | Time to primary endpoint, HR (95% CI) AMR101/Placebo [5]: 0.936 | Primary endpoint, patients with event (%) [6]: (16.7) % | Primary endpoint, patients with event n/N [6]: 71/426 | Time to primary endpoint, HR (95% CI) AMR101/Placebo [6]: 0.894 | Primary endpoint, patients with event (%) [7]: (8.8) % | Primary endpoint, patients with event n/N [7]: 33/374 | Time to primary endpoint, HR (95% CI) AMR101/Placebo [7]: 0.609 | Primary endpoint, patients with event (%) [8]: (13.7) % | Primary endpoint, patients with event n/N [8]: 59/431 | Time to primary endpoint, HR (95% CI) AMR101/Placebo [8]: 0.755 | Primary endpoint, patients with event (%) [9]: (15.7) % | Primary endpoint, patients with event n/N [9]: 29/185 | Time to primary endpoint, HR (95% CI) AMR101/Placebo [9]: 0.934 | Primary endpoint, patients with event (%) [10]: (12.3) % | Primary endpoint, patients with event n/N [10]: 46/375 | Time to primary endpoint, HR (95% CI) AMR101/Placebo [10]: 0.734 | Primary endpoint, patients with event n/N [11]: 49/396 | Time to primary endpoint, HR (95% CI) AMR101/Placebo [11]: 0.728 | Primary endpoint, patients with event (%) [12]: (15.1) % | Primary endpoint, patients with event n/N [12]: 59/390 | Time to primary endpoint, HR (95% CI) AMR101/Placebo [12]: 1.077 | Primary endpoint, patients with event (%) (Males, Baseline hsCRP >2 mg/L): (21.5) % | Time to primary endpoint, HR (95% CI) AMR101/Placebo (Males, Baseline hsCRP >2 mg/L): 0.772 | Primary endpoint, patients with event (%) (Males, Baseline hsCRP ≤2 mg/L): (16.4) % | Time to primary endpoint, HR (95% CI) AMR101/Placebo (Males, Baseline hsCRP ≤2 mg/L): 0.691 | Primary endpoint, patients with event (%) [13]: (20.5) % | Primary endpoint, patients with event n/N [13]: 187/913 | Time to primary endpoint, HR (95% CI) AMR101/Placebo [13]: 0.857 | Primary endpoint, patients with event (%) [14]: (19.0) % | Time to primary endpoint, HR (95% CI) AMR101/Placebo [14]: 0.652 | Primary endpoint, patients with event (%) [15]: (16.9) % | Primary endpoint, patients with event n/N [15]: 160/945 | Time to primary endpoint, HR (95% CI) AMR101/Placebo [15]: 0.717 | Primary endpoint, patients with event (%) [16]: (18.1) % | Time to primary endpoint, HR (95% CI) AMR101/Placebo [16]: 0.693 | Primary endpoint, patients with event (%) [17]: (19.9) % | Primary endpoint, patients with event n/N [17]: 90/453 | Time to primary endpoint, HR (95% CI) AMR101/Placebo [17]: 0.632 | Primary endpoint, patients with event (%) [18]: (18.9) % | Primary endpoint, patients with event n/N [18]: 181/960 | Time to primary endpoint, HR (95% CI) AMR101/Placebo [18]: 0.671 | Primary endpoint, patients with event (%) [19]: (19.0) % | Primary endpoint, patients with event n/N [19]: 185/972 | Primary endpoint, patients with event (%) [20]: (18.6) % | Primary endpoint, patients with event n/N [20]: 185/993 | Time to primary endpoint, HR (95% CI) AMR101/Placebo [20]: 0.741 | Primary endpoint, patients with event (%) [21]: (19.2) % | Time to primary endpoint, HR (95% CI) AMR101/Placebo [21]: 0.813 | Primary endpoint, patients with event (%) [22]: (15.0) % | Time to primary endpoint, HR (95% CI) AMR101/Placebo [22]: 0.680 | Primary endpoint, patients with event (%) [23]: 15.9% | Time to primary endpoint, HR (95% CI) AMR101/Placebo [23]: 0.812 | Primary endpoint, patients with event (%) [24]: 18.1% | Time to primary endpoint, HR (95% CI) AMR101/Placebo [24]: 0.667 | Primary endpoint, patients with event (%) [25]: 17.6% | Time to primary endpoint, HR (95% CI) AMR101/Placebo [25]: 0.800 | Primary endpoint, patients with event (%) [26]: (16.3) % | Time to primary endpoint, HR (95% CI) AMR101/Placebo [26]: 0.679 | Primary endpoint, patients with event (%) [27]: (19.1) % | Primary endpoint, patients with event n/N [27]: 118/619 | Time to primary endpoint, HR (95% CI) AMR101/Placebo [27]: 0.670 | Primary endpoint, patients with event (%) [28]: 16.9% | Time to primary endpoint, HR (95% CI) AMR101/Placebo [28]: 0.675
